How the values were obtained:
[1] = system: participants with cocaine use disorder; assay: Medical safety session: cardiovascular measures after intranasal cocaine; format: in vivo, human
Protocol: Participants completed one, single-blind medical safety session to ensure they could tolerate intranasal cocaine. Intranasal cocaine doses (i.e., 0 [placebo], 10, 20, 40 and 80 mg) were administered in ascending order. Placebo (i.e., 0 mg) was administered at 0900 hours. The subjective-effect questionnaires and cardiovascular measures described below were completed 30 minutes before placebo administration (i.e., 0830 hours), immediately following and at 15-minute intervals for 45 minutes. Subsequent cocaine administrations were separated by 45 minutes.

[2] = system: participants with cocaine use disorder; assay: Experimental sessions: cardiovascular measures after cocaine sampling dose during maintenance; details: cocaine 80 mg during topiramate (50 or 100 mg/day)+phentermine (0 mg/day) relative to cocaine 0 mg during 0+0 mg/day
[3] = Cocaine 10 mg, Topiramate (0 mg/day) group
[4] = Cocaine 10 mg, Topiramate (50 mg/day) group
[5] = Cocaine 10 mg, Topiramate (100 mg/day) group
[6] = Cocaine 20 mg, Topiramate (0 mg/day) group
[7] = Cocaine 20 mg, Topiramate (50 mg/day) group
[8] = Cocaine 20 mg, Topiramate (100 mg/day) group
[9] = Cocaine 40 mg, Topiramate (0 mg/day) group
[10] = Cocaine 40 mg, Topiramate (50 mg/day) group
[11] = Cocaine 40 mg, Topiramate (100 mg/day) group
[12] = Cocaine 80 mg, Topiramate (0 mg/day) group
[13] = Cocaine 80 mg, Topiramate (50 mg/day) group
[14] = Cocaine 80 mg, Topiramate (100 mg/day) group

COC(=O)[C@H]1[C@@H](OC(=O)c2ccccc2)C[C@@H]2CC[C@H]1N2C [Cocaine, cocaine]
Vitals Diastolic Pressure, mean peak effect [1, 3]: 77.2
Vitals Heart Rate, mean peak effect [1, 3]: 70.9
Vitals Systolic Pressure, mean peak effect [1, 3]: 121.1
Vitals Diastolic Pressure, mean peak effect [1, 4]: 84.8
Vitals Heart Rate, mean peak effect [1, 4]: 67.4
Vitals Systolic Pressure, mean peak effect [1, 4]: 123.9
Vitals Diastolic Pressure, mean peak effect [1, 5]: 82.6
Vitals Heart Rate, mean peak effect [1, 5]: 66.7
Vitals Systolic Pressure, mean peak effect [1, 5]: 125.1
Vitals Diastolic Pressure, mean peak effect [1, 6]: 81.5
Vitals Heart Rate, mean peak effect [1, 6]: 77.9
Vitals Systolic Pressure, mean peak effect [1, 6]: 125.3
Vitals Diastolic Pressure, mean peak effect [1, 7]: 84.1
Vitals Heart Rate, mean peak effect [1, 7]: 66.6
Vitals Systolic Pressure, mean peak effect [1, 7]: 131.8
Vitals Diastolic Pressure, mean peak effect [1, 8]: 82.3
Vitals Heart Rate, mean peak effect [1, 8]: 64.6
Vitals Systolic Pressure, mean peak effect [1, 8]: 128.3
Vitals Diastolic Pressure, mean peak effect [1, 9]: 81.6
Vitals Heart Rate, mean peak effect [1, 9]: 74.8
Vitals Systolic Pressure, mean peak effect [1, 9]: 124.9
Vitals Diastolic Pressure, mean peak effect [1, 10]: 82.4
Vitals Heart Rate, mean peak effect [1, 10]: 70.8
Vitals Systolic Pressure, mean peak effect [1, 10]: 129.9
Vitals Diastolic Pressure, mean peak effect [1, 11]: 86.5
Vitals Heart Rate, mean peak effect [1, 11]: 67.8
Vitals Systolic Pressure, mean peak effect [1, 11]: 131.7
Vitals Diastolic Pressure, mean peak effect [1, 12]: 85.9
Vitals Heart Rate, mean peak effect [1, 12]: 85.8
Vitals Systolic Pressure, mean peak effect [1, 12]: 130.5
Vitals Diastolic Pressure, mean peak effect [1, 13]: 84.8
Vitals Heart Rate, mean peak effect [1, 13]: 78.0
Vitals Systolic Pressure, mean peak effect [1, 13]: 133.8
Vitals Diastolic Pressure, mean peak effect [1, 14]: 88.3
Vitals Heart Rate, mean peak effect [1, 14]: 77.6
Vitals Systolic Pressure, mean peak effect [1, 14]: 137.4
heart rate or blood pressure ([1]; cocaine 20, 40 or 80 mg above placebo levels in at least one of the topiramate groups, medical safety session): significantly increased
heart rate [2]: significantly increased
